Measurements as given in publication PMC8160934, “Different Biological Activities of Histidine-Rich Peptides Are Favored by Variations in Their Design” (Toxins, 2021).
“Also recorded” adds a separate entry of the source.

Assays:
[1] = test system: E. coli bacteria (ATCC 25922); assay: Broth microdilution antibacterial assay (MIC) in Mueller–Hinton broth, pH 5; format: cell-based; conditions: E. coli, Mueller–Hinton broth pH 5; x50 from Origin fits of the growth curves of Figure 3 (concentration range 100 µM to 0.52 µM); fit error given; * error estimated in the range of the 1.5-fold dilution steps
Procedure: Therefore, the antibacterial properties of both series of peptides were analyzed in Mueller–Hinton (MH) broth at pH 5 by determining the minimal inhibitory concentrations (MICs).
Figure 3 Bacterial growth as a function of peptide concentration for the LAH4-Ln (A) and the LAH4-An series (B). The average of two experimental data sets (each data point derived from triplicates under the same experiment conditions) covering the concentration range 100 µM to 0.52 µM are shown by the relative bacterial growth when compared to bacteria in the absence of peptide (=100%). To guide the eye, the data have been fitted with the function ymin + (ymax − ymin)/(1 + (x/xo)^p)^s using the OriginPro software. […] The assay was performed in Mueller–Hinton broth, pH 5.
A broth microdilution assay was used to determine the minimal inhibitory concentration (MIC). A peptide aliquot of 1 mg was first solubilized in 50% ethanol (10 mM) then diluted in H2O to get a 300 μM peptide stock solution.
For all the activity tests, E. coli bacteria (ATCC® 25922^TM, Thermo Fisher Scientific, Courtaboeuf, France) were used. Briefly, some colonies from E. coli spread on gelose were resuspended in Mueller–Hinton broth, pH 7.4. After incubation at 37 °C for about 6 h this preculture was diluted to OD550nm = 0.2 in MH at pH5 and allowed to grow to reach the exponential phase (OD550nm = 1–2). After two-step dilution in MH pH5, the working bacteria suspension corresponding to 1.10^5–2.10^5 colony-forming units (CFU)/mL was obtained.
The antimicrobial testing was carried out in 96-well microplates (sterile polystyrene untreated with F-bottom, Thermo Scientific Nunc A/S, Roskilde, Denmark). The first column of the plate contains the highest final concentration (Cf) of peptide to test (two experiments were done: the first one starting at Cf 100 μM and a second one starting at 30 μM). All samples were added to the first column of the plate and subsequently spread onto the plate by a 1.5-fold dilution series in 10 steps. The last columns correspond to the positive and negative control conditions, respectively. Finally, the bacterial working suspension was distributed (50 μL at 1.10^5–2.10^5 CFU/mL in MH1X at pH 5) to each well except for the negative control (MH1X at pH5). The final volume was 100 μL/well and the range of peptide concentrations tested was from 100 μM to 1.73 μM for the first experiment and from 30 μM to 0.52 μM for the second experiment. The microplates were incubated at 37 °C for 12 h before bacterial growth was assessed by measuring the OD600. The initial bacterial density for each experiment was checked by spreading 100 μL of the working bacterial suspension, diluted 1/100 and 1/500 in MH1X, pH 5 on MH agar plates. After overnight incubation at 37 °C, the CFU were counted and the CFU/mL were determined. The percentage of bacterial growth compared to the positive control allows one to determine the MIC. The MIC values represent the average of the lowest tested peptide concentration (from both experiments) where most (at least 80%) of the bacterial growth is inhibited.

[2] = test system: VSV and GALVTR pseudotyped lentiviruses; conditions: cited from earlier work
[3] = in the transfection and other phosphate-containing buffers; cited from earlier work
[4] = naturally occurring antimicrobial peptides; cited from earlier work
From the text: The pronounced antimicrobial activities of cationic amphipathic peptides including LAH4 sequences have been associated with the perforation of microbial membranes. Indeed, under conditions where the peptides align along the membrane surface, high concentrations of LAH4 peptides result in the lysis of lipid bilayers. It is therefore unexpected that antimicrobial activity is highest for large hydrophilic angles, i.e., in inverse correlation with calcein release (Table 2, Figure 5). However, some of the naturally occurring antimicrobial pept ...

HCT116 cells [5] = assay: Saporin delivery, MTS cell viability; format: cell-based, human; conditions: HCT116, 0.54 µg/triplicate non-complexed saporin, 2 h 30 min, MTS two days later; result in words
Procedure: Figure 2 Transduction of the plant toxin saporin. HCT116 cells plated in 96-well plates were treated with 0.54 µg/triplicate of saporin in the absence or presence of LAH4 peptides (LAH4-Ln series in (A) and LAH4-An series in (B)). […] Two days later, an MTS assay was performed. The cell viability efficiency is expressed relative to untreated cells (=100%). […] For each peptide 3 conditions were tested: 4.05, 5.4 and 8.1 µg of peptide/0.54 µg saporin. Untreated cells (=100%; purple bar) and non-complexed saporin (black bar) were used as the control. The hydrophilic angles are shown on top in italics. […] The cell viability values appear only as bars and are not printed, so none are given. […]
Cell metabolic activity was measured by using an MTS (3-(4,5-dimethylthiazol-2-yl)-5-(3-carboxymethoxyphenyl)-2-(4-sulfophenyl)-2H-tetrazolium) assay (CellTiter 96® AQ ueous One Solution Cell Proliferation Assay, Promega). […] Plates were read at 490 nm (reagent absorbance) and 680 nm (background) (SP200, Safas, Monaco). The results were expressed by the subtraction of background absorbance and the expression of viability relative to non-treated controls (considered as 100% viability).

HCT116 cells [6] = assay: Luciferase protein transduction; format: cell-based, human; conditions: HCT116, 2 µg recombinant luciferase with 10-32 µg peptide, 3 h in serum-free medium, mean of duplicates; result in words
Procedure: To perform a rapid screening of the protein transduction activities of the two series of peptides, we selected to deliver the luciferase protein from Photinus pyralis, which has a molecular weight (MW) of 62 kDa and an isoelectric point (pI) of 6.3. Indeed, the measurement of the activity of this enzyme is fast and very sensitive. […] Increasing amounts of peptides were added to a fixed amount of luciferase, and after 3 h of incubation with the human colon cancer cells HCT116, enzymatic activity was measured.
Figure 1 Transduction of the luciferase protein. HCT116 cells in 48-well plates were treated with 2 µg of recombinant luciferase (Rec. Luc) (per duplicate) in the presence or absence of LAH4 peptides (LAH4-Ln series in (A) and LAH4-An series in (B)). After 3 h of incubation in serum-free medium, cells were washed once with 1 mL/well of phosphate buffer saline (PBS), lysed, and the luciferase activity was determined. […] For each peptide, four conditions were tested: 10, 16, 24 and 32 µg of peptide/2 µg recombinant luciferase, except for LAH4 (16, 24 and 32 µg). Non-complexed recombinant luciferase was used as the control (black bar). The hydrophilic angles are shown in italics. […] It is uncertain whether it counts as a property result. The luciferase activities are shown only as bars, with no printed numbers, and are left out.
Protein complexes were generated using increasing peptide/protein w/w ratios.
Then, 0.25 mL of serum-free medium containing the peptide/protein complexes was transferred into each well. After an incubation time of 3 h at 37 °C the medium was removed, cells were washed once with 1 mL/well of PBS, and then 100 μL of lysis buffer was added per well. Luciferase activity and protein content were measured as described above.

U87 cells = assay: DNA transfection with p-Luc plasmid, luciferase expression; conditions: 1.5 µg pDNA with 7.5-25 µg peptide, 2 h 30 min, read one day post-transfection, mean of duplicates, result in words
Procedure: In vitro cell transfection experiments were performed using the plasmid p-Luc (7.6 kb), which is an expression plasmid encoding the firefly luciferase gene under the control of the human cytomegalovirus (CMV) immediate–early promoter. In total, 55,000 U87 cells were plated in 48-well plates one day before the experiment was performed. For transfection, 0.25 mL of serum-free culture medium containing the DNA complexes was deposited into each well of the duplicate. After incubation for approximately 2 h 30 min at 37 °C the medium was replaced with a fresh one containing serum. Luciferase activity was measured as described below in the cell lysate one day after transfection.
Transfection complexes were prepared as follows: for a duplicate, 1.5 μg of plasmid DNA and the desired amount of peptide were each diluted into 25 μL of acetate buffer pH 5 and gently mixed. DNA complexes were generated using increasing peptide/DNA w/w ratios. After 20 min of incubation at room temperature, the mixture was diluted with culture medium to obtain a final volume of 0.5 mL.
For luciferase activity, cells were harvested in 100 μL of lysis buffer (8 mM MgCl2, 1 mM DTT, 1 mM EDTA, 0.6% Triton X-100, 15% glycerol, and 25 mM Tris-phosphate buffer pH 7.8). The cell lysate was then transferred into Eppendorf tubes and centrifuged for 7 min at 10,000× g to pellet debris. Luciferase light units were measured in a 96-well plate format with a Centro LB luminometer (Berthold) from an aliquot of the supernatant (2 μL) with 1 s integration after automatic injection of 50 μL assay buffer (lysis buffer without Triton X-100 but supplemented with 2 mM ATP) and 50 μL of a luciferin solution (167 μM in water). Luciferase background was subtracted from each value and the protein content of the transfected cells was measured by Bradford dye-binding using the BioRad protein assay (Bio-Rad). The transfection efficiency was expressed as light units/s/mg protein (light units measured over a period of 1 s, and the values were then normalized after measurement of the amount of protein present in each well). The reported values are the mean of duplicates. Error bars represent the standard deviation of the mean.
glioblastoma U87 cells. Increasing amounts of peptide were mixed with a constant amount of reporter
plasmid (1.5 µg per duplicate of pDNA) and the complexes were incubated for 2h 30min with the
cells plated in 48-well plates. The transfection medium was then removed and replaced with fresh
culture medium supplemented with 10% serum. Luciferase activity was measured one day post-
transfection. The transfection efficiency is expressed as light units/s/mg protein and the reported
values are the mean of duplicates. Error bars represent the standard deviation of the mean.

[7] = test system: E. coli bacteria (ATCC 25922); conditions: cited from earlier work
Procedure: Therefore, the antibacterial properties of both series of peptides were analyzed in Mueller–Hinton (MH) broth at pH 5 by determining the minimal inhibitory concentrations (MICs). […] Higher antimicrobial activity is observed when the angle increases. […] In contrast, for ...

Substance | MIC50 [1] [µM] | hydrophilic angle [4] [°] | luciferase protein transduction efficiency (luciferase activity, light units/s/mg protein) (HCT116 cells [6]) | also measured
H-KKALLHAALAHLLALAHHLLALLKKA-NH2 [LAH4-A4, isomer of LAH4, LAH4-An series, also named Vectofusin-1] | 6 |  |  | lentiviral transduction enhancement [2]: highly efficient; also recorded: enhances the transduction; formation of fibers [3]: formation of fibers
magainin 2 |  | 180 |  | 
saporin |  |  |  | cell death induced by saporin alone (HCT116 cells [5]): low levels of cell death
H-KKALLHALLAHLAALLHALLAHLKKA-NH2 [LAH4-A5, isomer of LAH4, LAH4-An series] | 5.3 |  | the most efficient peptides | DNA transfection activity (luciferase activity) (U87 cells): high levels of activity
H-KKALLALALHHLAHLALHLALALKKA-NH2 [LAH4] |  |  | the most efficient peptides | pH dependence of antimicrobial activity ([7]; E. coli, pH 5 compared to pH 7.5, result in words): considerably more pronounced at pH 5; MIC ([7]; reference peptide LAH4, E. coli): 8.8 µM
cecropin |  | 180 |  | 
